According to US10131652B2, “Pyrimidinyloxy benzene derivatives as herbicides” (E. I. DU PONT DE NEMOURS AND COMPANY, priority 2014, dated 2018):
Read-outs that look alike come from different tables or passages of the source.

How the values were obtained:
Experiment in all cases: Test B pre-/postemergence plant response
Type in all cases: in vivo
[1] = test system: velvetleaf (Abutilon theophrasti); settings: for pest or weed control at 125 g/ha: 125 g ai/ha; for Plant response rating, Velvetleaf / pest or weed control at 1000 g/ha: 1000 g ai/ha
Excerpt: (§1) Seeds of plant species selected from bamyardgrass (Echinochloa crus-galli), kochia (Kochia scoparia), ragweed (common ragweed, Ambrosia elatior), Italian ryegrass (Lolium multiflorum), large (Lg) crabgrass (Digitaria sanguinalis), giant foxtail (Setaria faberii), momingglory (Ipomoea spp.), pigweed (Amaranthus retroflexus), velvetleaf (Abutilon theophrasti), wheat (Triticum aestivum), and corn (Zea mays) were planted into a blend of loam soil and sand and treated preemergence with a directed soil spray using test chemicals formulated in a non-phytotoxic solvent mixture which included a surfactant. At the same time, plants selected from these crop and weed species and also blackgrass (Alopecurus myosuroides), and galium (catchweed bedstraw, Galium aparine) were planted in pots containing the same blend of loam soil and sand and treated with postemergence applications of test chemicals formulated in the same manner. Plants ranged in height from 2 to 10 cm and were in the one- to two-leaf stage for the postemergence treatment. Treated plants and untreated controls were maintained in a greenhouse for approximately 10 days, after which time all treated plants were compared to untreated controls and visually evaluated for injury. Plant response ratings, summarized in Table B, are based on a 0 to 100 scale where 0 is no effect and 100 is complete control. A dash (-) response means no test result.

[2] = test system: wheat (Triticum aestivum); settings: for plant injury at 125 g/ha: 125 g ai/ha; for Plant response rating, Wheat / plant injury at 1000 g/ha: 1000 g ai/ha, 0 to 100 scale (0 no effect, 100 complete control)
Excerpt: as §1

[3] = test system: large (Lg) crabgrass (Digitaria sanguinalis); settings: for pest or weed control at 125 g/ha: 125 g ai/ha; for Plant response rating, Crabgrass, Large / pest or weed control at 1000 g/ha: 1000 g ai/ha
Excerpt: as §1

corn (Zea mays) = settings: for Corn plant response rating (crop injury, 0 = no effect, 100 = complete kill) at 125 g/ha: 125 g ai/ha; for Plant response rating, Corn / Corn plant response rating (crop injury, 0 = no effect, 100 = complete kill) at 1000 g/ha: 1000 g ai/ha
Excerpt: as §1

[4] = test system: pigweed (Amaranthus retroflexus); settings: for pest or weed control at 125 g/ha: 125 g ai/ha; for Plant response rating, Pigweed / pest or weed control at 1000 g/ha: 1000 g ai/ha
Excerpt: as §1

[5] = test system: giant foxtail (Setaria faberii); settings: for pest or weed control at 125 g/ha: 125 g ai/ha; for Plant response rating, Foxtail, Giant / pest or weed control at 1000 g/ha: 1000 g ai/ha
Excerpt: as §1

[6] = test system: morningglory (Ipomoea spp.); settings: for pest or weed control at 125 g/ha: 125 g ai/ha; for Plant response rating, Morningglory / pest or weed control at 1000 g/ha: 1000 g ai/ha
Excerpt: as §1

[7] = test system: barnyardgrass (Echinochloa crus-galli); settings: for pest or weed control at 125 g/ha: 125 g ai/ha; for Plant response rating, Barnyardgrass / pest or weed control at 1000 g/ha: 1000 g ai/ha
Excerpt: as §1

[8] = Preemergence, 31 g ai/ha, 0 to 100 scale (0 no effect, 100 complete control)
[9] = Postemergence, 0 to 100 scale (0 no effect, 100 complete control)
[10] = Preemergence, 0 to 100 scale (0 no effect, 100 complete control)

FC(F)(F)c1cnc(Oc2ccccc2-c2cnc(Br)s2)nc1 [Compound 15, 2-[2-(2-bromo-5-thiazolyl)phenoxy]-5-(trifluoromethyl)pyrimidine] gave a pest or weed control at 31 g/ha ([1]; Abutilon theophrasti, post-emergence, 240 h, 31 g ai/ha, Postemergence, 0 to 100 scale, 0 no effect, 100 complete control, read-out: Plant response rating, Velvetleaf) of 0%, a pest or weed control at 125 g/ha ([1]; Abutilon theophrasti, post-emergence, 240 h, postemergence, 0 to 100 scale, 0 no effect, 100 complete control, read-out: Plant response rating, Velvetleaf) of 0% and a pest or weed control at 125 g/ha ([1]; Abutilon theophrasti, pre-emergence, 240 h, Preemergence, 0 to 100 scale where 0 is no effect and 100 is complete control, read-out: Plant response rating, Velvetleaf) of 0%. The “Velvetleaf plant response rating” value [1, 8] was 0, the plant injury at 31 g/ha ([2]; Triticum aestivum, post-emergence, 240 h, 31 g ai/ha, Postemergence, 0 to 100 scale, 0 no effect, 100 complete control, read-out: Plant response rating, Wheat) was 0% and the plant injury at 125 g/ha ([2]; Triticum aestivum, post-emergence, 240 h, postemergence, 0 to 100 scale, 0 no effect, 100 complete control, read-out: Plant response rating, Wheat) was 0%. The plant injury at 125 g/ha ([2]; Triticum aestivum, pre-emergence, 240 h, Preemergence, 0 to 100 scale where 0 is no effect and 100 is complete control, read-out: Plant response rating, Wheat) was 0%, the pest or weed control at 31 g/ha ([3]; Digitaria sanguinalis, post-emergence, 240 h, 31 g ai/ha, Postemergence, 0 to 100 scale, 0 no effect, 100 complete control, read-out: Plant response rating, Crabgrass, Large) was 0% and the pest or weed control at 125 g/ha ([3]; Digitaria sanguinalis, post-emergence, 240 h, postemergence, 0 to 100 scale, 0 no effect, 100 complete control, read-out: Plant response rating, Crabgrass, Large) was 10%. The pest or weed control at 125 g/ha ([3]; Digitaria sanguinalis, pre-emergence, 240 h, Preemergence, 0 to 100 scale where 0 is no effect and 100 is complete control, read-out: Plant response rating, Crabgrass, Large) was 0%, the “Crabgrass, Large plant response rating” value [3, 8] was 0 and the “Corn plant response rating” value (corn (Zea mays); [8]) was 0. The Corn plant response rating (crop injury, 0 = no effect, 100 = complete kill) at 31 g/ha (corn (Zea mays); Zea mays, post-emergence, 240 h, 31 g ai/ha, Postemergence, 0 to 100 scale, 0 no effect, 100 complete control) was 0%, the Corn plant response rating (crop injury, 0 = no effect, 100 = complete kill) at 125 g/ha (corn (Zea mays); Zea mays, post-emergence, 240 h, postemergence, 0 to 100 scale, 0 no effect, 100 complete control) was 0% and the Corn plant response rating (crop injury, 0 = no effect, 100 = complete kill) at 125 g/ha (corn (Zea mays); Zea mays, pre-emergence, 240 h, Preemergence, 0 to 100 scale where 0 is no effect and 100 is complete control) was 0%. For the same molecule, the pest or weed control at 31 g/ha ([4]; Amaranthus retroflexus, post-emergence, 240 h, 31 g ai/ha, Postemergence, 0 to 100 scale, 0 no effect, 100 complete control, read-out: Plant response rating, Pigweed) was 60%, the pest or weed control at 125 g/ha ([4]; Amaranthus retroflexus, post-emergence, 240 h, postemergence, 0 to 100 scale, 0 no effect, 100 complete control, read-out: Plant response rating, Pigweed) was 70% and the pest or weed control at 125 g/ha ([4]; Amaranthus retroflexus, pre-emergence, 240 h, Preemergence, 0 to 100 scale where 0 is no effect and 100 is complete control, read-out: Plant response rating, Pigweed) was 0%. The “Pigweed plant response rating” value [4, 8] was 0, the “Foxtail, Giant plant response rating” value [5, 8] was 0 and the pest or weed control at 31 g/ha ([5]; Setaria faberi, post-emergence, 240 h, 31 g ai/ha, Postemergence, 0 to 100 scale, 0 no effect, 100 complete control, read-out: Plant response rating, Foxtail, Giant) was 0%. It also gave a pest or weed control at 125 g/ha ([5]; Setaria faberi, post-emergence, 240 h, postemergence, 0 to 100 scale, 0 no effect, 100 complete control, read-out: Plant response rating, Foxtail, Giant) of 0%, a pest or weed control at 125 g/ha ([5]; Setaria faberi, pre-emergence, 240 h, Preemergence, 0 to 100 scale where 0 is no effect and 100 is complete control, read-out: Plant response rating, Foxtail, Giant) of 0% and a pest or weed control at 31 g/ha ([6]; Ipomoea, post-emergence, 240 h, 31 g ai/ha, Postemergence, 0 to 100 scale, 0 no effect, 100 complete control, read-out: Plant response rating, Morningglory) of 0%. For the same molecule, the pest or weed control at 125 g/ha ([6]; Ipomoea, post-emergence, 240 h, postemergence, 0 to 100 scale, 0 no effect, 100 complete control, read-out: Plant response rating, Morningglory) was 10%, the pest or weed control at 125 g/ha ([6]; Ipomoea, pre-emergence, 240 h, Preemergence, 0 to 100 scale where 0 is no effect and 100 is complete control, read-out: Plant response rating, Morningglory) was 0% and the “Morningglory plant response rating” value [6, 8] was 0. It also gave a pest or weed control at 31 g/ha ([7]; Echinochloa crus-galli, post-emergence, 240 h, 31 g ai/ha, Postemergence, 0 to 100 scale, 0 no effect, 100 complete control, read-out: Plant response rating, Barnyardgrass) of 0%, a pest or weed control at 125 g/ha ([7]; Echinochloa crus-galli, post-emergence, 240 h, postemergence, 0 to 100 scale, 0 no effect, 100 complete control, read-out: Plant response rating, Barnyardgrass) of 0% and a pest or weed control at 125 g/ha ([7]; Echinochloa crus-galli, pre-emergence, 240 h, Preemergence, 0 to 100 scale where 0 is no effect and 100 is complete control, read-out: Plant response rating, Barnyardgrass) of 0%. The “Barnyardgrass plant response rating” value [7, 8] was 0.

For ClCc1cc(-c2ccccc2Oc2ncc(Cl)cn2)no1 [Compound 34], the “Plant response rating, Velvetleaf” value [1, 9] was 20, the “Plant response rating, Velvetleaf” value [1, 10] was 10 and the “Plant response rating, Wheat” value ([2]; Postemergence) was 0. For the same molecule, the “Plant response rating, Wheat” value ([2]; Preemergence) was 0, the “Plant response rating, Crabgrass, Large” value [3, 9] was 10 and the “Plant response rating, Crabgrass, Large” value [3, 10] was 10. For the same molecule, the “Plant response rating, Corn” value (corn (Zea mays); [9]) was 0, the “Plant response rating, Corn” value (corn (Zea mays); [10]) was 0 and the “Plant response rating, Pigweed” value [4, 9] was 40. The “Plant response rating, Pigweed” value [4, 10] was 100, the “Plant response rating, Foxtail, Giant” value [5, 9] was 0 and the “Plant response rating, Foxtail, Giant” value [5, 10] was 10. For the same molecule, the “Plant response rating, Morningglory” value [6, 9] was 0, the “Plant response rating, Morningglory” value [6, 10] was 0 and the “Plant response rating, Barnyardgrass” value [7, 9] was 0. The “Plant response rating, Barnyardgrass” value [7, 10] was 0.

O=Cc1cc(-c2ccccc2Oc2ncc(Cl)cn2)no1 [Compound 33, 3-[2-[(5-chloro-2-pyrimidinyl)oxy]phenyl]-5-isoxazolecarboxaldehyde] was tested, and the pest or weed control at 1000 g/ha ([1]; Abutilon theophrasti, post-emergence, 240 h, Postemergence, 0 to 100 scale (0 no effect, 100 complete control), read-out: Plant response rating, Velvetleaf) was 0%, the pest or weed control at 1000 g/ha ([1]; Abutilon theophrasti, pre-emergence, 240 h, Preemergence, 0 to 100 scale (0 no effect, 100 complete control), read-out: Plant response rating, Velvetleaf) was 0% and the plant injury at 1000 g/ha ([2]; Triticum aestivum, post-emergence, 240 h, Postemergence, read-out: Plant response rating, Wheat) was 0%. For the same molecule, the plant injury at 1000 g/ha ([2]; Triticum aestivum, pre-emergence, 240 h, Preemergence, read-out: Plant response rating, Wheat) was 0%, the pest or weed control at 1000 g/ha ([3]; Digitaria sanguinalis, post-emergence, 240 h, Postemergence, 0 to 100 scale (0 no effect, 100 complete control), read-out: Plant response rating, Crabgrass, Large) was 10% and the pest or weed control at 1000 g/ha ([3]; Digitaria sanguinalis, pre-emergence, 240 h, Preemergence, 0 to 100 scale (0 no effect, 100 complete control), read-out: Plant response rating, Crabgrass, Large) was 80%. The Corn plant response rating (crop injury, 0 = no effect, 100 = complete kill) at 1000 g/ha (corn (Zea mays); Zea mays, post-emergence, 240 h, Postemergence, 0 to 100 scale (0 no effect, 100 complete control)) was 0%, the Corn plant response rating (crop injury, 0 = no effect, 100 = complete kill) at 1000 g/ha (corn (Zea mays); Zea mays, pre-emergence, 240 h, Preemergence, 0 to 100 scale (0 no effect, 100 complete control)) was 0% and the pest or weed control at 1000 g/ha ([4]; Amaranthus retroflexus, post-emergence, 240 h, Postemergence, 0 to 100 scale (0 no effect, 100 complete control), read-out: Plant response rating, Pigweed) was 10%. It also gave a pest or weed control at 1000 g/ha ([4]; Amaranthus retroflexus, pre-emergence, 240 h, Preemergence, 0 to 100 scale (0 no effect, 100 complete control), read-out: Plant response rating, Pigweed) of 40%, a pest or weed control at 1000 g/ha ([5]; Setaria faberi, post-emergence, 240 h, Postemergence, 0 to 100 scale (0 no effect, 100 complete control), read-out: Plant response rating, Foxtail, Giant) of 10% and a pest or weed control at 1000 g/ha ([5]; Setaria faberi, pre-emergence, 240 h, Preemergence, 0 to 100 scale (0 no effect, 100 complete control), read-out: Plant response rating, Foxtail, Giant) of 10%. For the same molecule, the pest or weed control at 1000 g/ha ([6]; Ipomoea, post-emergence, 240 h, Postemergence, 0 to 100 scale (0 no effect, 100 complete control), read-out: Plant response rating, Morningglory) was 10%, the pest or weed control at 1000 g/ha ([6]; Ipomoea, pre-emergence, 240 h, Preemergence, 0 to 100 scale (0 no effect, 100 complete control), read-out: Plant response rating, Morningglory) was 0% and the pest or weed control at 1000 g/ha ([7]; Echinochloa crus-galli, post-emergence, 240 h, Postemergence, 0 to 100 scale (0 no effect, 100 complete control), read-out: Plant response rating, Barnyardgrass) was 0%. It also gave a pest or weed control at 1000 g/ha ([7]; Echinochloa crus-galli, pre-emergence, 240 h, Preemergence, 0 to 100 scale (0 no effect, 100 complete control), read-out: Plant response rating, Barnyardgrass) of 0%.
